These results are taken from US10975068B2, “6-aminopyridin-3-yl thiazoles as modulators of RORγT” (Janssen Pharmaceutica NV, priority 2016, dated 2021).

For one assay, the system named is mice. The conditions noted are these: cited from earlier work.
For assay [1], the system named is IL-17 production by CD4 T cells. Nature of the assay: Human Th17 assay. In kind it is cell-based. As to conditions: read-out: Human Th17 Assay, IC50. An excerpt:
The human Th17 assay tests the effect of RORγt modulatory compounds on IL-17 production by CD4 T cells under conditions which favor Th17 differentiation. Total CD4^+ T cells were isolated from the peripheral blood mononuclear cells (PBMC) of healthy donors using a CD4^+ T cell isolation kit II, following the manufacturer's instructions (Miltenyi Biotec). Cells were resuspended in a medium of RPMI-1640 supplemented with 10% fetal bovine serum, penicillin, streptomycin, glutamate, and β-mercaptoethanol and were added to 96-well plates at 1.5×10^5 per 100 μL per well. 50 μL of compound at titrated concentrations in DMSO were added into each well at final DMSO concentration at 0.2%. Cells were incubated for 1 hour, then 50 μL of Th17 cell differentiation medium was added to each well. The final concentrations of antibodies and cytokines (R&D Systems) in differentiation medium were: 3×10^6/mL anti-CD3/CD28 beads (prepared using human T cell activation/expansion kit, Miltenyi Biotec), 10 μg/mL anti-IL4, 10 μg/mL anti-IFNγ, 10 ng/mL IL1β, 10 ng/mL IL23, 50 ng/mL IL6, 3 ng/mL TGFβ and 20 U/mL IL2. Cells were cultured at 37° C. and 5% CO2 for 3 days. Supernatants were collected and the accumulated IL-17 in culture was measured by using MULTI-SPOT® Cytokine Plate following manufacture's instruction (Meso Scale Discovery). The plate was read using Sector Imager 6000, and IL-17 concentration was extrapolated from the standard curve. The IC50s were determined by GraphPad.

Assay [2] addresses T1, full-length human RORγt (Homo sapiens (Human), UniProt P51449). The experiment in a line: RORγt (full-length human) reporter assay, Conditions B or C. The format is cell-based. As to conditions: for IC50: read-out: RORγt (FL) Reporter Assay B or C, IC50. In outline:
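Readout is dual luciferase: firefly (GAL4-driven) normalized to DMSO-only and saturating-reference controls, then to CMV-Renilla. Full-length human RORγt fused to GAL4-DBD was transiently expressed in HEK293T; compound exposure ran overnight (16-20 h) starting 4-6 h after transfection, final FBS 1.3%, DMSO 0.1%.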
(In a reporter assay the amount or activity of a reporter protein is the signal.)

For assay [3], the target named is human RORγt ligand binding domain (RORγt LBD) (Homo sapiens (Human), UniProt P51449). Nature of the assay: RORγt ThermoFluor® assay (thermal shift binding). The conditions noted are these: for Kd: read-out: ThermoFluor® Assay, Kd. A digest of the protocol:
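Binding was inferred from thermal stabilisation (ΔTm) of the E. coli-expressed RORγt LBD (0.065 mg/mL), monitored by 1,8-ANS (60 μM) emission at 500 nm during a 1 °C/min ramp. Buffer was Hepes 100 mM pH 7.0 with NaCl, GSH and Tween-20.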

Assay [4] addresses T1, full-length human RORγt. Nature of the assay: RORγt (full-length human) reporter assay, Conditions A. In kind it is cell-based. As to conditions: for IC50: read-out: RORγt (FL) Reporter Assay A, IC50; for inhibition at 6 µM: read-out: RORγt (FL) Reporter Assay A, % inhibition @ 6 μM. An excerpt:
RORγt (Full-Length Human) Reporter Assay:
Cells used in this assay were transiently co-transfected with three different plasmids, one expressing the GAL4-DNA binding domain (DBD)-RORγt fusion protein under control of a CMV promoter (NH2-Gal4-DBD:RORC-COOH in pCMV-BD, Stratagene #211342), and two reporter plasmids—the firefly luciferase reporter under control of a GAL4 promoter (pFR-Luc 2×GAL4) and Renilla luciferase reporter under control of CMV promoter (pRL-CMV, Promega # E2261). The full-length coding sequence was used for human RORγt, i.e., nucleotides 142-1635 of human RORγt, transcript variant 2, NCBI Accession: NM_001001523.1 (SEQ ID NO:1). HEK293T cells were plated at 35000 per well in 96-well plate in medium of MEM with 8.6% FBS. After 18-22 hours incubation, the transfection was carried out by using a PEI solution with 170.5 ng total DNA/well (50 ng pCMV-BD-ROR plus 20 ng of pFR-Luc reporter and 0.5 ng of pRL-CMV reporter plus 100 ng Carrier DNA (Clontech #630440) for each well). 4-6 hours after transfection, cells were treated with compounds for overnight in the medium with final concentration of FBS 1.1% and DMSO 0.1%. After overnight (16 to 20 hours) incubation, media were removed and cells were lysed with 20 μL 1× Passive Lysis Buffer (Promega) for 10-15 minutes. Luminescence was measured using a BMG LUMIstar OPTIMA plate reader, after addition of 75 μL/well firefly luciferase buffer, followed by 75 μL/well Renilla luciferase buffer. To calculate the effect of compounds on RORγt activity, firefly values were normalized against values of DMSO only and values of reference compound at saturating concentration, then further normalized against Renilla signals. IC50s were generated by plotting final Renilla normalized data against compound concentration and percent inhibition was calculated against DMSO control.

For a further assay, the system named is obese diabetic mice. The conditions noted are these: cited from earlier work.

T1 sequence (P51449 other isoform, or with tags, fused parts or gaps): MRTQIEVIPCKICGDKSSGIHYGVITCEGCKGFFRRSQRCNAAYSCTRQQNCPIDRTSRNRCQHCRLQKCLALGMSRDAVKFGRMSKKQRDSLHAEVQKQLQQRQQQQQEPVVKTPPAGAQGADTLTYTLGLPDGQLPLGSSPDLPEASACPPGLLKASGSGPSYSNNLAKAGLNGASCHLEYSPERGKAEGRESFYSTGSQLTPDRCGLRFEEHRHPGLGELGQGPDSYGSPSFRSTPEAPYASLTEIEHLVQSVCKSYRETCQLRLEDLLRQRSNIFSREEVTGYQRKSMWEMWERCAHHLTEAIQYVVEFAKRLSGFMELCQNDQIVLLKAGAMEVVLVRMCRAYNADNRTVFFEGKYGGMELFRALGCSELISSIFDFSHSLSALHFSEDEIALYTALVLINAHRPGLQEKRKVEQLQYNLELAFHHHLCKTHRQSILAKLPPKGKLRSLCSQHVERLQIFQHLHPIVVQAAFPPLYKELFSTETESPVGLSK
Sequence of human RORγt ligand binding domain (RORγt LBD) (P51449 other isoform, or with tags, fused parts or gaps): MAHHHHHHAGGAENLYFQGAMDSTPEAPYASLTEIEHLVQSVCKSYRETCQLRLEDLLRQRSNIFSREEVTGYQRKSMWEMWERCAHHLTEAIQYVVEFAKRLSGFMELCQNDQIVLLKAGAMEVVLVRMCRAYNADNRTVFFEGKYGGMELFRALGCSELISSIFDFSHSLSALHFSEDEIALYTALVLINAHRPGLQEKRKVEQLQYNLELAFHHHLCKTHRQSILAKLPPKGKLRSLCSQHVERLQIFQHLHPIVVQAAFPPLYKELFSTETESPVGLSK

On to `CC(=O)Nc1nc(C)c(S(=O)(=O)Nc2ccc(C(O)(C(F)(F)F)C(F)(F)F)cc2)s1` [SR1001], for which, in the assay with mice, the Th17-dependent learned helplessness entry is reported as “reduced Th17-dependent learned helplessness”.

On to `CC[C@H](Nc1cc(C(F)F)c(-c2sc(C(=O)NCC(C)(C)O)nc2C(=O)N2CCCC[C@@H]2C)cn1)C(F)(F)F` [Example 91, 5-(4-(Difluoromethyl)-6-(((S)-1,1,1-trifluorobutan-2-yl)amino)pyridin-3-yl)-N-(2-hydroxy-2-methylpropyl)-4-((S)-2-methylpiperidine-1-carbonyl)thiazole-2-carboxamide], for which the IC50 (commonly the point on the concentration scale where inhibition reaches its midpoint) in assay [1] amounted to 0.019 µM. Further, the “RORγt (FL) Reporter Assay B or C, % inhibition (value marked *)” value on full-length human RORγt [2] (Conditions B or C, marked *: footnote not given) is 96* %.

Regarding `CC(C)(O)CNC(=O)c1nc(C(=O)N2CCC(F)CC2)c(-c2cnc(NC3CCCCC3)cc2C2CC2)s1` [Example 64, 5-(6-(Cyclohexylamino)-4-cyclopropylpyridin-3-yl)-4-(4-fluoropiperidine-1-carbonyl)-N-(2-hydroxy-2-methylpropyl)thiazole-2-carboxamide], the Kd (in general, the concentration at which binding is half-saturated) in assay [3] was 0.017 µM. The IC50 is 0.22 µM in assay [1] and 0.063 µM at full-length human RORγt [4] (Conditions A). Besides, the inhibition (as a rule, the change of the read-out against control, counted positive when it falls) at 6 µM at full-length human RORγt [4] (Conditions A) worked out at 96%.

`CC(=O)N1CCN(Cc2ccc(-c3ccc(C(O)(C(F)(F)F)C(F)(F)F)cc3)cc2)CC1` [SR1555]: in the assay on obese diabetic mice, the body weight entry is “reduced”, the fat mass result was “significant reduction”, the food intake result is listed as “modest reduction” and the insulin sensitivity result is listed as “improved”.

In the case of `C[C@H]1CCCCN1C(=O)c1nc(C(=O)NCC(C)(C)O)sc1-c1cnc(NC2CCCCC2)cc1C1CC1` [Example 76, (S)-5-(6-(Cyclohexylamino)-4-cyclopropylpyridin-3-yl)-N-(2-hydroxy-2-methylpropyl)-4-(2-methylpiperidine-1-carbonyl)thiazole-2-carboxamide], the IC50 in assay [1] amounted to 0.02 µM; at full-length human RORγt [2] (Conditions B or C), 0.0038 µM. In addition, at full-length human RORγt [2] (read-out: RORγt (FL) Reporter Assay B or C, % inhibition @ 6 μM, Conditions B or C, @ 6 μM), the inhibition at 6 µM is 108%.

In the case of `C[C@H]1CCCN1C(=O)c1nc(C(=O)NCC(C)(C)O)sc1-c1cnc(NC2CCCCC2)cc1C(F)(F)F` [Example 19, (S)-5-(6-(Cyclohexylamino)-4-(trifluoromethyl)pyridin-3-yl)-N-(2-hydroxy-2-methylpropyl)-4-(2-methylpyrrolidine-1-carbonyl)thiazole-2-carboxamide], the Kd in assay [3] came to 0.0044 µM. For the same compound, the half-inhibitory concentration (IC50) in assay [1] was found to be 0.04 µM. At full-length human RORγt [4] (Conditions A), the IC50 worked out at 0.032 µM and the inhibition at 6 µM came out at 99%.

As for `C[C@H]1CCCCN1C(=O)c1nc(C(=O)NC2CCS(=O)(=O)CC2)sc1-c1cnc(NC2CCCCC2)cc1C1CC1` [Example 75, (S)-5-(6-(Cyclohexylamino)-4-cyclopropylpyridin-3-yl)-N-(1,1-dioxidotetrahydro-2H-thiopyran-4-yl)-4-(2-methylpiperidine-1-carbonyl)thiazole-2-carboxamide], the results for the IC50 (in assay [1]; on full-length human RORγt [2] (Conditions B or C)) were 0.014 µM and 0.007 µM, respectively. Moreover, the “RORγt (FL) Reporter Assay B or C, % inhibition (value marked **)” value on full-length human RORγt [2] (Conditions B or C, marked **: footnote not shown) is listed as 108** %.

Take `CC(C)Nc1cc(C(F)(F)F)c(-c2sc(C(=O)NCC(C)(C)O)nc2C(=O)N2CCC(F)CC2)cn1` [Example 12, 4-(4-Fluoropiperidine-1-carbonyl)-N-(2-hydroxy-2-methylpropyl)-5-(6-(isopropylamino)-4-(trifluoromethyl)pyridin-3-yl)thiazole-2-carboxamide]: the “fold improvement in RORγt Thermofluor® binding assay activity” value in assay [3] (compared to Comparator Example 3) is reported as “over 800 fold”. For the same compound, the Kd in assay [3] is 0.063 µM. In addition, the IC50 came to 0.19 µM in assay [1] and 0.85 µM on full-length human RORγt [4] (HEK293T cells). In addition, the inhibition at 6 µM on full-length human RORγt [4] (Conditions A) is 92%.

`CC(C)(O)CNC(=O)c1nc(C(=O)N2CCC(F)CC2)c(-c2cnc(NC3CCCCC3)cc2C(F)(F)F)s1` [Example 3, 5-(6-(Cyclohexylamino)-4-(trifluoromethyl)pyridin-3-yl)-4-(4-fluoropiperidine-1-carbonyl)-N-(2-hydroxy-2-methylpropyl)thiazole-2-carboxamide]: the Kd in assay [3] worked out at 0.0096 µM. In addition, the IC50 worked out at 0.04 µM in assay [1] and 0.035 µM on full-length human RORγt [4] (Conditions A). Moreover, on full-length human RORγt [4] (Conditions A, marked **: footnote not shown), the “RORγt (FL) Reporter Assay A, % inhibition (value marked **)” value is 106** %.
